Results from patent US20080287653A1, “METHOD FOR PRODUCING INHIBITORS AND INHIBITORS FORMED THEREFROM” (THE UNIVERSITY OF AKRON, priority 2007, published 2008).
Non-standard residues stand in square brackets, D forms with d. Residues, ends and D or L forms follow the SMILES beside them. Lys(Thioacetyl) = CC(=S)NCCCC[C@H](N)C(=O)O

Biological target: T1, SIRT3 (Homo sapiens, UniProt Q9NTG7)
T1 construct: purchased
T1 sequence (Q9NTG7 1-399): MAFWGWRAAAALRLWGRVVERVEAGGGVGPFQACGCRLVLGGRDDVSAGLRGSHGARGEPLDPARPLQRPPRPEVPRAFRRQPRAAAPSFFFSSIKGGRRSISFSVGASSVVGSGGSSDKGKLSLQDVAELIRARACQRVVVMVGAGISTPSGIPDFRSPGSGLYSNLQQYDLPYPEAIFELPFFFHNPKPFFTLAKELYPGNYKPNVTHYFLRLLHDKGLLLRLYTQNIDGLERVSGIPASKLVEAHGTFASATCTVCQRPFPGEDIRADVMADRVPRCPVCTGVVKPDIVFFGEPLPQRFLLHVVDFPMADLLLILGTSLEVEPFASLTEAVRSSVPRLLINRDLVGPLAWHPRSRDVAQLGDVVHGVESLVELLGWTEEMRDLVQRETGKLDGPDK
Assay: HPLC-based SIRT3 inhibition assay with purified SIRT3
Assay type: biochemical
Settings: SIRT3 vs SIRT2
Description: Inhibition assays with purified SIRT1, SIRT2, and SIRT3. GST-SIRT1 that could be produced in a laboratory was used for the SIRT1 inhibition assay. SIRT2 and SIRT3 are obtainable from commercial sources known to those skilled in the art. Consistent HPLC-based assay procedures were used for the inhibition assays with SIRT1, SIRT2, and SIRT3. In brief, an inhibition assay solution had the following components: 25 mM (or 50 mM for SIRT2 assay) Tris.HCl (pH 8.0) 137 mM NaCl, 2.7 mM KCl, 1 mM MgCl2, 1 mg/mL BSA (SIGMA Cat. #A3803 with reduced fatty acid content, for SIRT2 assay only), 0.5 mM β-NAD^+, 0.3 mM peptide substrate (peptide 1b for SIRT1 and SIRT2 assays; peptide 3b for SIRT3 assay), an inhibitor (peptide 1a, 2, or 3a) with varied concentrations including 0, and an enzyme (GST-SIRT1, 0.15 μM; SIRT2, 0.3 μM; or SIRT3, 2.0 μM). […] An enzymatic reaction was initiated by the addition of an enzyme at 37° C. and was allowed to be incubated at 37° C.: 10 minutes as follows: for SIRT1 assay, or 60 minutes for SIRT2 and SIRT3 assays. […] The enzymatic deacetylation products (peptide 1c in SIRT1 and SIRT2 assays; peptide 3c in SIRT3 assay) were confirmed by their comigration with the chemically synthesized authentic samples and by MALDI-TOF mass spectrometric analysis, and were quantified by HPLC peak integration and comparison with those of synthetic authentic samples. […]

- inhibition weaker for SIRT3 as compared to SIRT2: about 40 fold
Structure (SMILES): CC[C@H](C)[C@H](NC(=O)[C@@H](NC(=O)[C@H](CCCCNC(C)=S)NC(=O)[C@H](CC(=O)O)NC(=O)[C@H](CO)NC(=O)[C@@H]1CCCN1C(=O)[C@@H](N)CCSC)[C@@H](C)O)C(=O)NCC(=O)NCC(=O)O [Peptide 2] (H-MPSD[Lys(Thioacetyl)]TIGG-OH)
